{"source": "ChEMBL document CHEMBL5346924", "about": "“Optically activated MEK1/2 inhibitors (Opti-MEKi) as potential antimelanoma agents” (Eur J Med Chem, 2023)", "key": {"A549": {"system": "A549", "experiment": "Antiproliferative activity against human A549 cells harboring KRas […] mutant assessed as cell growth inhibition preincubated with compound for 1 hrs followed by UV irradiation for 5 mins and measured 72 hrs post compound treatment by CellTiter-Glo luminescent assay", "type": "functional", "settings": "A549, light or radiation study"}, "CYP2D6": {"molecular_target": "CYP2D6 (Homo sapiens, UniProt P10635)", "sequence (P10635 whole entry)": "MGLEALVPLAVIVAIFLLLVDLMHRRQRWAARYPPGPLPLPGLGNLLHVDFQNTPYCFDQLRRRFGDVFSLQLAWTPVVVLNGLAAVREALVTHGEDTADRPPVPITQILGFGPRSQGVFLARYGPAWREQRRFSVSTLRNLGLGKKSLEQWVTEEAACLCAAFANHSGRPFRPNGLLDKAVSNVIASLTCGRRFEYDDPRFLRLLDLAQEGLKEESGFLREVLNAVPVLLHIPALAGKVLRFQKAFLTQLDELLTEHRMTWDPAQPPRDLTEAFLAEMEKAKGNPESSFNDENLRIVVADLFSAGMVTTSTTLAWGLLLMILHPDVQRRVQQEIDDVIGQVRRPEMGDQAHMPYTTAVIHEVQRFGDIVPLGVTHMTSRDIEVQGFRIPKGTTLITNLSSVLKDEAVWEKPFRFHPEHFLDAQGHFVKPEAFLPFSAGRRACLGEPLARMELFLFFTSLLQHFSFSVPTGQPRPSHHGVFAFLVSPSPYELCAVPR", "experiment": "Inhibition of CYP2D6 in human microsomes at 10 uM in the presence of NADPH relative to control", "type": "ADME, Microsome"}, "[1]": {"molecular_target": "Ribosomal protein S6 kinase alpha-1 (Homo sapiens) (UniProt Q15418)", "sequence (Q15418 whole entry)": "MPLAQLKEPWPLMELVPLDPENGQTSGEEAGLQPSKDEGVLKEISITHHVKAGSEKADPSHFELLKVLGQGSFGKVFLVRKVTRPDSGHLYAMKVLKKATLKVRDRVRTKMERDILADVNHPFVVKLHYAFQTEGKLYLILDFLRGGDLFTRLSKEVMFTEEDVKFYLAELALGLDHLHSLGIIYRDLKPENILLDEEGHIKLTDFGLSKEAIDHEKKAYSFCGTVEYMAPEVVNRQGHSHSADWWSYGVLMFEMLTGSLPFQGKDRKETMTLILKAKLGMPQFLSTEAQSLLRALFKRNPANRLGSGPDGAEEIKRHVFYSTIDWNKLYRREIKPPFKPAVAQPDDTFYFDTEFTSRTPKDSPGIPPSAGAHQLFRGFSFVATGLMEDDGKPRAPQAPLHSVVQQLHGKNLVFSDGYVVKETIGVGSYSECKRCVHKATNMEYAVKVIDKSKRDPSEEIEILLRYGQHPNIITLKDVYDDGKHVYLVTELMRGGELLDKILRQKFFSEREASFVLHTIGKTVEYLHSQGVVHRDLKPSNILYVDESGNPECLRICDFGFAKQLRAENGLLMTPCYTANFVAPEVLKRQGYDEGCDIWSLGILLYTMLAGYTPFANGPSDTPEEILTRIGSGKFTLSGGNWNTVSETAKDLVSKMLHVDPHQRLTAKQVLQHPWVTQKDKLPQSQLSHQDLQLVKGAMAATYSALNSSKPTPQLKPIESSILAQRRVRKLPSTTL", "experiment": "Inhibition of recombinant human RSK1 at 1 uM"}, "A-375 [2]": {"system": "A-375", "experiment": "Antiproliferative activity against human A-375 cells harboring BRAF V600E mutant assessed as cell growth inhibition preincubated with compound for 1 hrs followed by UV irradiation for 1 min and measured 72 hrs post compound treatment by CellTiter-Glo luminescent assay", "type": "functional", "settings": "A-375, light or radiation study"}, "A-375 [3]": {"system": "A-375", "experiment": "Antiproliferative activity against human A-375 cells harboring BRAF V600E mutant assessed as cell growth inhibition preincubated with compound for 1 hrs followed by UV irradiation for 3 mins and measured 72 hrs post compound treatment by CellTiter-Glo luminescent assay", "type": "functional", "settings": "A-375, light or radiation study"}, "Homo sapiens": {"species": "Homo sapiens", "experiment": "Inhibition of recombinant human PI3K at 1 uM"}, "[4]": {"experiment": "Photoactivation of the compound assessed as photocleavage in the presence of 365 nm UV irradiation by HPLC based LC-MS analysis"}, "A-375 [5]": {"system": "A-375", "experiment": "Antiproliferative activity against CM-Dil labelled human A-375 cells xenografted in Zebra fish AB at 45 pM administered from 3 days post fertilization and measured at day 5 post fertilization in the absence of irradiation by fluorescence based analysis", "type": "functional, cell-based", "settings": "time 48.0 hrs"}, "HCT-116": {"system": "HCT-116", "experiment": "Antiproliferative activity against human HCT-116 cells harboring KRAS G13D mutant assessed as cell growth inhibition incubated for 72 hrs in the absence of UV irradiation by CellTiter-Glo luminescent assay", "type": "functional", "settings": "HCT-116, light or radiation study"}, "[6]": {"experiment": "Metabolic stability in human liver microsomes assessed as intrinsic clearance in the presence of NADPH regenerating system", "type": "ADME, Microsome", "settings": "read-out: CLH"}, "[7]": {"experiment": "Photoactivation of the compound assessed as photocleavage by measuring decay half-life in the presence of 365 nm UV irradiation by HPLC based LC-MS analysis"}, "CYP2C9": {"molecular_target": "CYP2C9 (Homo sapiens, UniProt P11712)", "sequence (P11712 whole entry)": "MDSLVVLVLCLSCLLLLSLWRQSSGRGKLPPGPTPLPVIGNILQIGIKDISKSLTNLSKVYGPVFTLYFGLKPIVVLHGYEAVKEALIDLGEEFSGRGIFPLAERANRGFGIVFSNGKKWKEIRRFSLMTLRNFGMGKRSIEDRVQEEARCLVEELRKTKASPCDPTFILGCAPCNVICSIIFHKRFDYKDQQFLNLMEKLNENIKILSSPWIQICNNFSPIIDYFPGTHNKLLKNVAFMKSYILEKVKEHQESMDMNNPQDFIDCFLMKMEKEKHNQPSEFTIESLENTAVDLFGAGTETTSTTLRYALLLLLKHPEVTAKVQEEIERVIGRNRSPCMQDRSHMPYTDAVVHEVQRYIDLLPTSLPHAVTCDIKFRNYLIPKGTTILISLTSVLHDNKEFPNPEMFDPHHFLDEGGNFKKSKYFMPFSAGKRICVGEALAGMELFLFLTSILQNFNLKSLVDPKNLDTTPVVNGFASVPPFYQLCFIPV", "experiment": "Inhibition of CYP2C9 in human microsomes at 10 uM in the presence of NADPH relative to control", "type": "ADME, Microsome"}}, "note": "Calls of active or inactive are those of the source. No cut-off for these calls is given here.", "data": [{"smiles": "COc1cc(C(C)O/C(=N\\OC[C@H](O)CO)c2ccc(F)c(F)c2Nc2ccc(I)cc2F)c([N+](=O)[O-])cc1OC", "note": "(some centres not stated)", "values": [{"measurement": "GI50", "setting": "A549", "value": 27.8, "unit": "nM"}, {"measurement": "inhibition at 10 µM", "setting": "CYP2D6", "value": 21.5, "unit": "%"}, {"measurement": "inhibition", "setting": "[1]", "value": "inactive"}, {"measurement": "GI50", "setting": "A-375 [2]", "value": 6.29, "unit": "nM"}, {"measurement": "GI50", "setting": "A-375 [3]", "value": 2.95, "unit": "nM"}, {"measurement": "inhibition", "setting": "Homo sapiens", "value": "inactive"}, {"measurement": "Drug metabolism", "setting": "[4]", "value": "Metabolite_Detected"}, {"measurement": "Activity", "setting": "A-375 [5]", "value": "inactive"}, {"measurement": "GI50", "setting": "HCT-116", "value": "> 10000", "unit": "nM"}, {"measurement": "CLint scaled", "setting": "[6]", "value": 51.4, "unit": "mL/min/kg"}, {"measurement": "half-life", "setting": "[7]", "value": 1.41, "unit": "min"}, {"measurement": "inhibition at 10 µM", "setting": "CYP2C9", "value": 63.3, "unit": "%"}]}]}
